Values joined by “and” are separate entries in the source; they are usually repeats but may differ in a detail not shown here. Identical values can stand only once.
Experiments:
Type in all cases: in vivo
[1] = system: Neotropical Brown Stink Bug (Euschistus heros, EUSCHE, BSB); assay: Bioassay 5: neotropical brown stink bug, artificial agar diet
Experimental: Stock solutions were prepared with F1 as well as for each of the active ingredients individually. Test solutions were prepared from the stock solutions. Test solutions were prepared containing F1, the individual active ingredients, and mixtures of F1 with each of the active ingredients. The test solution for F1 and the individual active ingredients were prepared by adding 30 μL of the stock solution to a single well of a 96 well plate, then adding 30 μL of DMSO, followed by the addition of 140 μL of a 2:1 mixture of acetone:water as a diluent to create a 0.03% (w/v) solution. […]
The test solutions were tested against BSB using the following procedure: an artificial agar diet (2% agar, 12% sucrose) was distributed in 48 well plastic plates (Fisher Scientific™). […] The total number of living BSB nymphs was recorded four days after application. […] Percent control was measured using Abbott's correction formula (W. S. Abbott, J. Econ. Entomol. 18 (1925), pp. 265-267) as follows:
where X=No. of live nymphs on solvent check and Y=No. of live nymphs on treated bean segments. In Table B5 the “Expected % Control” was calculated using the method described in Colby S. R., Weeds, 1967, 15, 20-22. […]

[2] = system: Sweet Potato Whitefly (Bemisia tabaci, BEMITA, SPW); assay: Bioassay 2: sweet potato whitefly, cotton seedling foliar spray; settings: F1 alone
[3] = system: Beet Armyworm (Spodoptera exigua, LAPHEG, BAW); assay: Bioassay 7: beet armyworm, artificial diet, 96 well plate
[4] = system: Western Corn Rootworm (Diabrotica virgifera virgifera, DIABVI, WCR); assay: Bioassay 8: western corn rootworm, soil drench, corn root protection; settings: F1 alone, DIABVI (CRW), 10 mL soil drench, corn nodal root length after 13 days
Experimental: Corn seeds were planted in steam pasteurized soil filled greenhouse pots. Western corn rootworm Diabrotica virgifera virgifera eggs supplied from the Corteva Agriscience in Johnston, IA US, were suspended in a 0.08% agar solution added into the soil. Stock solutions of F1 and active ingredients were prepared at a concentration of either 250 or 500 ugai/10 mL for F1 and active ingredients at the ratios of (F1:AI) 1:0.004; 1:0.01; 1:0.02; 1:0.04; 1:0.08; 1:0.1; 1:0.15; 1:0.2; 1:0.4; 1:2; or 1:4, using a 1:1 solution of acetone:water as a diluent. A soil application of solutions were applied as a 10 mL drench over the soil. Plants were grown in the greenhouse for 13 days at 25 C after which the roots were removed from the soil, washed, and measured to determine the length of the median nodal roots. The measured lengths were compared to the infested and un-infested untreated checks to determine the mean percent control offered to protect the corn roots.

[5] = system: Corn Earworm (Helicoverpa zea, HELIZE, CEW); assay: Bioassay 7: corn earworm, artificial diet, 96 well plate
[6] = system: Soybean Looper (Chrysodeixis includens, PSEPIN, SBL); assay: Bioassay 7: soybean looper, artificial diet, 96 well plate; settings: CL; F1 alone at 0.000005 wt %
[7] = system: Fall Armyworm (Spodoptera frugiperda, LAPHFR, FAW); assay: Bioassay 7: fall armyworm, artificial diet, 96 well plate
Experimental: The test solutions were tested against CEW, FAW, BAW, and SBL using the following procedure: an artificial lepidopteran diet (Multispecies Lepidopteran Diet, Southland Products) was distributed in 96 well plate. Twenty μL of test solution was pipetted onto a cell in the bioassay plate. […] Each treatment was replicated 5 times for each species. Approximately five first instar CEW, FAW, BAW, or SBL larva were placed on top of the diet in each cell and was contained with a clear perforated adhesive lid. Test trays were held at approximately 25° C. and ambient relative humidity prior to grading. After five days, the number of cells where all the larvae were dead were recorded as 100% and averaged across all replicates; then the percent control was measured using Abbott's correction formula (W. S. Abbott, J. Econ. Entomol. 18 (1925), pp. 265-267) as follows:
where X=No. of live larvae on solvent check and Y=No. of live larvae on treated diet. In Table 7 the “Expected % Control” was calculated using the method described in Colby S. R., Weeds, 1967, 15, 20-22. Bioassay 8: Western Corn Rootworm (Diabrotica virgifera virgifera, DIABVI, “WCR”)

Structure (SMILES)	Average % Control AI ([1]; AI alone, Wt % AI 0.0045, EUSCHE, four days) [%]	Average % Control F1 ([2]; F1 0.1, 7-9 days after treatment) [%]	Average % Control F1 ([2]; F1 10, 7-9 days after treatment)	Average % Control F1 ([3]; F1 alone at 0.0000025 wt %) [%]	Average % Control F1 ([3]; F1 alone at 0.00001 wt %) [%]	Average % Control F1 ([1]; F1 alone, Wt % F1 0.0045, EUSCHE nymphs, agar diet, four days after application) [%]	Average % Control F1 ([4]; UgActive F1 250)	Average % Control F1 ([4]; UgActive F1 500) [%]	Average % Control F1 ([5]; F1 alone at 0.00002 wt %) [%]	Average % Control F1 ([5]; F1 alone at 0.00004 wt %)	Average % Control F1 [6] [%]	Average % Control F1 ([7]; F1 alone at 0.0000025 wt %) [%]	Average % Control F1 ([7]; F1 alone at 0.000005 wt %) [%]
Cc1c(COC(=O)[C@@H]2[C@H](/C=C(\Cl)C(F)(F)F)C2(C)C)cccc1-c1ccccc1 (racemic) [Bifenthrin]	60.0												
Cc1ccc(COCC(F)(F)F)c(N2C(=O)CS/C2=N\C(=O)Nc2ccc(-c3ncn(-c4ccc(OC(F)(F)F)cc4)n3)cc2F)c1 [F1]		0.0	37.4% and 50.1%	12.5	40.0	7.1	97.8% and 88.8%	83.9	0.0	62.5% and 50.0%	80.0	0.0	62.5

From patent US20260182575A1, “MOLECULES HAVING PESTICIDAL UTILITY AND INTERMEDIATES AND PROCESSES RELATED THERETO” (CORTEVA AGRISCIENCE LLC, priority 2022, published 2026)
